Columns and labels:
[1] = target: T1, Nuclear receptor subfamily 1 group I member 2 (Homo sapiens, UniProt O75469); assay: Transactivation of human PXR transfected in human HepG2 cells co-transfected with CYP3A4-Luc plasmid incubated for overnight by luciferase reporter gene assay; type: ADME, cell-based
T1 sequence (O75469 whole entry): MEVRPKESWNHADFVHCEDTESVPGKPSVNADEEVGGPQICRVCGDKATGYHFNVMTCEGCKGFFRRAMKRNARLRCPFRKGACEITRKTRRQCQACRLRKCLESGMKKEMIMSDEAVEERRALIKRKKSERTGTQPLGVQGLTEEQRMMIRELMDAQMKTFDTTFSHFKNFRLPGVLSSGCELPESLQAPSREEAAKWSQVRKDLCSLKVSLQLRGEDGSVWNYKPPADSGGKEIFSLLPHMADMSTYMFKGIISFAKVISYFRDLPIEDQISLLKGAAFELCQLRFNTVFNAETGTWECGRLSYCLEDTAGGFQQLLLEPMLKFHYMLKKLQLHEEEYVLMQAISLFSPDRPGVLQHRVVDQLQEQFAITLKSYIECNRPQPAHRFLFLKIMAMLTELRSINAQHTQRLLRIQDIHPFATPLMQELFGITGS

[2] = Allosteric inhibition of HIV-1 integrase assessed as antiviral activity against HIV-1 NL4-3 infected in human MT-2 cells by measuring inhibition of viral growth by luciferase reporter gene assay; type: cell-based; conditions: Human immunodeficiency virus 1, NL4-3, MT2
PXR (NR1I2) = target: T2, PXR (NR1I2) (Homo sapiens, UniProt O75469); assay: Transactivation of human PXR transfected in human HepG2 cells co-transfected with CYP3A4-Luc plasmid incubated for overnight by luciferase reporter gene assay relative to 10 uM rifampicin; type: ADME, cell-based
T2 sequence (O75469 whole entry): T1 sequence (O75469 whole entry)

Row | SMILES | EC50 [1] [nM] | Emax (PXR (NR1I2)) [%] | EC50 [2] [nM]
1 | Cc1cc2nc(-c3cccc(-c4cccc(F)c4)c3)cn2c(N2CCC(C)(C)CC2)c1[C@H](OC(C)(C)C)C(=O)O |  |  | 20.9
2 | Cc1c([C@H](OC(C)(C)C)C(=O)O)c2n3cc(nc3c1C(C)(C)O)-c1cccc(c1)-c1cc(F)ccc1O[C@@H](C)CCCCOC1(C)CCN2CC1 | 1010 | 71 | 5.7
3 | Cc1nc2cc(-c3cccc(-c4ccccc4)c3)nn2c(N2CCC(C)(C)CC2)c1[C@H](OC(C)(C)C)C(=O)O |  |  | 130

The next lines start with results.

Row | EC50 [1] [nM] | Emax (PXR (NR1I2)) [%] | SMILES | EC50 [2] [nM]
4 | > 50000 |  | Cc1c([C@H](OC(C)(C)C)C(=O)O)c2n3cc(nc3c1CN(C)C)-c1cccc(c1)-c1cc(F)ccc1O[C@@H](C)CCCCOC1(C)CCN2CC1 | 4.4
5 | > 50000 |  | Cc1c([C@H](OC(C)(C)C)C(=O)O)c2n3cc(nc3c1CNCC(C)(C)O)-c1cccc(c1)-c1cc(F)ccc1O[C@@H](C)CCCCOC1(C)CCN2CC1 | 9.5
6 | > 50000 |  | Cc1c([C@H](OC(C)(C)C)C(=O)O)c2n3cc(nc3c1CNC(C)C)-c1cccc(c1)-c1cc(F)ccc1O[C@@H](C)CCCCOC1(C)CCN2CC1 | 7.3

Reference: ChEMBL document CHEMBL4699481, “Structure-based amelioration of PXR transactivation in a novel series of macrocyclic allosteric inhibitors of HIV-1 integrase” (Bioorg Med Chem Lett, 2020)
